Test results reported in patent US20200239530A1, “COMPOUNDS AND METHODS OF MODULATING PROTEIN DEGRADATION” (Vividion Therapeutics, Inc., priority 2017, published 2020).

How the values were obtained:
Experiment in all cases: Cysteine liganding, probe competition
Format in all cases: binding
[1] = molecular target: T1, CEP44 Centrosomal protein of 44 kDa (Homo sapiens, UniProt Q9C0F1)
T1 construct: 200 μL of lysate containing 5 mg/ml proteome was treated with 2 μL of 100× compound stock; endogenous in cells
T1 sequence (Q9C0F1 1-390): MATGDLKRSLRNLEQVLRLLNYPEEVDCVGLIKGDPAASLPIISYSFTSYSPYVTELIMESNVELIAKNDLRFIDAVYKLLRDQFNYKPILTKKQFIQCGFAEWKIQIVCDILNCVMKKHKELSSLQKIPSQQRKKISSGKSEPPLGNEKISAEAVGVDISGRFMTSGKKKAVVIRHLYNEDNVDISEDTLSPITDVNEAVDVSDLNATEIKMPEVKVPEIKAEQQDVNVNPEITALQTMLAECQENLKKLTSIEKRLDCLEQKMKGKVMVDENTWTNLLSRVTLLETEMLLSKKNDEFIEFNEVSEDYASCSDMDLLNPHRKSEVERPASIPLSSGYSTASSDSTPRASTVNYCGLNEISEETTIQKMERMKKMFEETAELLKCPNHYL
In short: (§1)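 Read-out is loss of desthiobiotin iodoacetamide labelling at cysteines, measured on streptavidin-enriched tryptic peptides. Compound preincubation ran 1 hr at 25° C in PBS lysate holding 5 mg/ml proteome before the probe was added.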

[2] = molecular target: T2, DDX60 Probable ATP-dependent RNA helicase DDX60 (Homo sapiens, UniProt Q8IY21)
T2 construct: 200 μL of lysate containing 5 mg/ml proteome was treated with 2 μL of 100× compound stock; endogenous in cells
T2 sequence (Q8IY21 whole entry): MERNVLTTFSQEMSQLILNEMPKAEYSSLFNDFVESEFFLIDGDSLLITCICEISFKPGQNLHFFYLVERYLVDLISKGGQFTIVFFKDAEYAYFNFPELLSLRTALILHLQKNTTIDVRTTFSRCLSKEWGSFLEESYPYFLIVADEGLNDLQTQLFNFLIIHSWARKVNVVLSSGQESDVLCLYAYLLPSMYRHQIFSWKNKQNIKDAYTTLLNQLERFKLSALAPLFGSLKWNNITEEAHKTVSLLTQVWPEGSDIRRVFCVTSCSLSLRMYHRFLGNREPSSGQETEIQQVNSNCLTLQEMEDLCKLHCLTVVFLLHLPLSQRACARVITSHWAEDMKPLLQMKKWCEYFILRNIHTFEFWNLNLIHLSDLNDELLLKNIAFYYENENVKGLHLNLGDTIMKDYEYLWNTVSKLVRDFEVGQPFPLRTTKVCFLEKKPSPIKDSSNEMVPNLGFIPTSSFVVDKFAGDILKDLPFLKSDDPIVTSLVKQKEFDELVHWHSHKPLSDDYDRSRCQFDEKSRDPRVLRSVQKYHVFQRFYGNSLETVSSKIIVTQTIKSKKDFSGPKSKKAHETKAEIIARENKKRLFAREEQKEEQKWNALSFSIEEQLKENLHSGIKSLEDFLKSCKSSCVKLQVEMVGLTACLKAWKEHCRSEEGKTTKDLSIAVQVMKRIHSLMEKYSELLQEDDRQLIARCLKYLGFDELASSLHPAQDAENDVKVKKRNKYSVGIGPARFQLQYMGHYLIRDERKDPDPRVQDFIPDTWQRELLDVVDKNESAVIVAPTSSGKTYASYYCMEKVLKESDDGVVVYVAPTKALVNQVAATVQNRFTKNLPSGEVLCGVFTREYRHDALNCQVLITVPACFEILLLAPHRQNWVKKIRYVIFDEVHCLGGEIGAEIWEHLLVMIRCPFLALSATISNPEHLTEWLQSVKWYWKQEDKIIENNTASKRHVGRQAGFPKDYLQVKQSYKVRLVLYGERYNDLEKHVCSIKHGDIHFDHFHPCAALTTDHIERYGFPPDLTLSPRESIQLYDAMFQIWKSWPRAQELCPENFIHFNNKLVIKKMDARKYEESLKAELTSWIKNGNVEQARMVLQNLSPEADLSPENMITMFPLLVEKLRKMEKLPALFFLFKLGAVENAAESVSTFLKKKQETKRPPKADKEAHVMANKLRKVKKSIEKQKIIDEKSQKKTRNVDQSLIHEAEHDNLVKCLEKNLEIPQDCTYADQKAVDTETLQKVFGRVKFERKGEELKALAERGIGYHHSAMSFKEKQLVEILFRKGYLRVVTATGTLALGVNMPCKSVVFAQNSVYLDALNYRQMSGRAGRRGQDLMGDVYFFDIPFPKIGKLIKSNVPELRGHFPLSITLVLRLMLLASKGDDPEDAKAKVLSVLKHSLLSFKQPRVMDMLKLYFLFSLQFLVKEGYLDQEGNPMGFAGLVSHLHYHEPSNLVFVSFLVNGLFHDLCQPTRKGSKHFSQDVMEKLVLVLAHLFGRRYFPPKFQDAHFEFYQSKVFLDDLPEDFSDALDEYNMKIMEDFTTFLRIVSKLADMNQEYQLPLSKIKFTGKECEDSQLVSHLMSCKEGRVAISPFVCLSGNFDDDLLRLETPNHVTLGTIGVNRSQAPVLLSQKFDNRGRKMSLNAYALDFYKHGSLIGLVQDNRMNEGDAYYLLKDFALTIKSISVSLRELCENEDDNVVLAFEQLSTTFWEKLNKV
In short: as §1

[3] = molecular target: T3, KIAA0528 Uncharacterized protein KIAA0528 (Homo sapiens, UniProt Q86YS7)
T3 construct: Cells were resuspended in cold PBS on ice and sonicated with a probe sonicator to achieve lysis; endogenous in cells
T3 sequence (Q86YS7 1-1000): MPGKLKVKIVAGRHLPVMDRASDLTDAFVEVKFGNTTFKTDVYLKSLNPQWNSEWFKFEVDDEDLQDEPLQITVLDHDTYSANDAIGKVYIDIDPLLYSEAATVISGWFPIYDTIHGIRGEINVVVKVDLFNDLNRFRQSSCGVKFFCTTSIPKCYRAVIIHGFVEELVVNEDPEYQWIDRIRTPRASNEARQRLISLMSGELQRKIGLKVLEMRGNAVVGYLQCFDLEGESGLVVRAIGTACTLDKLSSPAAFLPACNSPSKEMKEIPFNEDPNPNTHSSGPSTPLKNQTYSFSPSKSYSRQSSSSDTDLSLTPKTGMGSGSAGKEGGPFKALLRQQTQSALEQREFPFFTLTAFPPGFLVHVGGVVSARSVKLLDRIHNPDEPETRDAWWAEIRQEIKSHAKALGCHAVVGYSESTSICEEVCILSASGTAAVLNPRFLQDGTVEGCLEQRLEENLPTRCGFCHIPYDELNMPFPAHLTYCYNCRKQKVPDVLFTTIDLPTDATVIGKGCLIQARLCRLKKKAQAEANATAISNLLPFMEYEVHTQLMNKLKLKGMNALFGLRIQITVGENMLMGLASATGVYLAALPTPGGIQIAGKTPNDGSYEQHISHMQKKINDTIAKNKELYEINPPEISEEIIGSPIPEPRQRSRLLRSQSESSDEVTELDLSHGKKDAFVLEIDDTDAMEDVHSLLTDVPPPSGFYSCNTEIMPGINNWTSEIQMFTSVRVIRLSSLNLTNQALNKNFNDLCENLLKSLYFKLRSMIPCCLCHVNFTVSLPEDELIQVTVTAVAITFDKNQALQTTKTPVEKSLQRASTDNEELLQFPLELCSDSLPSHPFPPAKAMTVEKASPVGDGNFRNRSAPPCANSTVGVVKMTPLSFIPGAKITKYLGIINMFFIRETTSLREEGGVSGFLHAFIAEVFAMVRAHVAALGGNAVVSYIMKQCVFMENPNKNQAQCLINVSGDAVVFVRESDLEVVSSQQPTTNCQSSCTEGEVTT
In short: as §1

SMILES | Liganded ([1]; CEP44 Res# 28, uniprot Q9C0F1) | Liganded ([2]; DDX60 Res# 1051, uniprot Q8IY21) | Liganded ([3]; KIAA0528 Res# 867, uniprot Q86YS7) | 100 ave ([1]; uniprot Q9C0F1) | 500 ave ([1]; uniprot Q9C0F1) | 100 Max ([1]; uniprot Q9C0F1, in % (unit assumed)) | 500 Max ([1]; uniprot Q9C0F1, unit assumed) [%] | 100 Max ([2]; uniprot Q8IY21) | 100 ave ([2]; uniprot Q8IY21) | 500 Max ([2]; uniprot Q8IY21) | 500 ave ([2]; uniprot Q8IY21) | 100 ave ([3]; uniprot Q86YS7) | 500 Max ([3]; uniprot Q86YS7) | 500 ave ([3]; uniprot Q86YS7) | 100 Max ([3]; uniprot Q86YS7, unit assumed) [%]
COc1ccc2c(c1)CCCN2C(=O)CCl [KB02] | YES | YES | YES |  |  |  |  |  |  |  |  |  |  |  | 
O=C(CCl)Nc1cc(C(F)(F)F)cc(C(F)(F)F)c1 [KBO3] |  |  |  | 14.85 | 69.9 | 14.85 | 69.9 | 29.56 | 19.7 | 73.07 | 73.07 | −6.4125 | 46.81 | 33.415 | 7.23
